From patent US7078566B2, “Salts of guanidine derivatives and pharmaceutical preparations consisting thereof” (Biosphinks Aktiengesellschaft, priority 2001, dated 2006)

Experiments:
[1] = Solubility of C11AG salts in potassium phosphate buffer (crystal formation by microscope); details: for Crystals: pH 7.4, 4 mM C11AG salt
[2] = target: neutral sphingomyelinase from Bacillus cereus (Bacillus cereus, UniProt P11889); assay: biochemical; details: pH 7.2, 37° C., 24 h
Description: Paranitrophenylphosphoryl-choline was dissolved to a final concentration of 1 mg/ml in 0.1 M Tris at pH 7.2 and 10 mM […]. […] The optical density is a measure for the quantity of cleaved substrate. Dose-effect curves were used to determine the concentration at which the enzyme activity is inhibited by 50% (IC50).

[3] = tested on: nude mice (strain: Swiss, Nu/Nu); assay: Physiological tolerability after subcutaneous application (tissue damage after 24 h)
Description: Aliquots of 0.1 ml each were administered to 3 nude mice (strain: Swiss, Nu/Nu) by subcutaneous application. After 24 h, the degree of tissue damage was recorded. The results are shown in Table 4, in which no visible damage=−, reddening=+, edemas=++, and necroses=+++.

[4] = Solubility of C11AG salts in water
DSS induced colitis = assay: DSS induced colitis, body weight loss; type: in vivo, mice (strain Balb C); details: in food equimolar to 0.5 mg C11AG/g
Text: (§1) Female mice (strain Balb C, 9 weeks old) were obtained from Charles River and were kept under specific pathogen free conditions under an artificial day/night rhythm. Animals were fed with Altromin standard diet and received water ad libitum. Colitis was induced by addition of dextran sulfate (DSS) (MW 36,000–50,000, ICN, Aurora, Ohio, lot 2387F) to drinking water at a concentration of 7.5%. For C11AG treatment the free base of C11AG (lot 2-3-3) was used. Animals received Altromin powder food, mixed with 0.5 mg C11AG/g or with equimolar concentration of C11AG salt (i.e. 0.785 mg/g C11AG hexanate). As determined in calibration experiments Balb C mice (8–12 weeks old) consume each day 150 g food/kg body weight. The corresponding daily doses of C11AG were therefore: 75 and […]. Body weight loss is one of the most evident symptoms of DSS induced colitis. Mean body weight was determined every day for each group and the weight loss was calculated.
as §1, with “libitum.Colitis” for “libitum. Colitis”, “Animals received Altromin powder food, mixed with 0.5 mg C11AG/g or with equimolar concentration of C11AG salt (i.e. 0.785 mg/g C11AG hexanate).” left out, “calculated. Mean weight loss was added over a period of eleven days.” for “calculated.”

[5] = paranitrophenylphosphoryl-choline substrate
[6] = IC50, paranitrophenylphosphoryl-choline substrate
[7] = Example 10, mean weight loss added over eleven days, FIG. 3

Sequence of neutral sphingomyelinase from Bacillus cereus (P11889 28-333): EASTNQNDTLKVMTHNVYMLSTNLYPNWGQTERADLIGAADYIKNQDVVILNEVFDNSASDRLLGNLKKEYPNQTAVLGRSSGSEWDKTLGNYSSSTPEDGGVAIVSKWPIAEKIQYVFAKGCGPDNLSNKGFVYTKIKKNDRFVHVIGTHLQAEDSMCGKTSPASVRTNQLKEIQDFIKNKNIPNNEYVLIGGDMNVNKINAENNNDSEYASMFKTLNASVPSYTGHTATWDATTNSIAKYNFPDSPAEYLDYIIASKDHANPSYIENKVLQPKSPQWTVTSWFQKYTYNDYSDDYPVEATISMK

| Compound | IC50 [2, 5] | Solubility in water [4] | Crystals ([1]; phosphate 1 mM–1,000 mM) | Protection from DSS induced weight loss as compared to the free base (DSS induced colitis; [7]) | other results |
| --- | --- | --- | --- | --- | --- |
| CC(=O)O.CCCCCCCCCCC=NNC(=N)N [Acetate, undecylideneaminoguanidine acetate] | 0.85 µg/mL | >10000 µg/mL | – | – | Crystals ([1]; phosphate 1 mM): no; Crystals ([1]; phosphate 10 mM–1,000 mM): yes; phosphate concentration at which the salt precipitates (forms insoluble phosphates) ([1]; potassium phosphate buffer pH 7.4, 4 mM C11AG salt): 10 mM; concentration up to which well-tolerated / no damage ([3]; 0.1 ml subcutaneous, nude mice, after 24 h): 20000 µM |
| CCCCCCCCCCC=NNC(=N)N [Chloride, reference compound] | – | – | yes | – | IC50 [2, 6]: 3.53 µM; lowest concentration leading to reddening and edemas ([3]; Swiss Nu/Nu (nude), mouse, in vivo, sc, 24 h): 20 mM; solubility ([4]; water): > 10000 µg/mL |
| CC(O)C(=O)O.CCCCCCCCCCC=NNC(=N)N [Lactate, undecylideneaminoguanidine lactate] | 0.9 µg/mL | – | – | – | Crystals ([1]; phosphate 1 mM): no; Crystals ([1]; phosphate 10 mM–1,000 mM): yes |
| CCCCCCCCCCC=NNC(=N)N [Oenanthate, undecylideneaminoguanidine oenanthate] | – | >10000 µg/mL | no | – | IC50 [2, 6]: 3.31 µM |
| Dodecylphosphonate | – | 100 µg/mL | – | – | – |
| Undecylenate | – | 100 µg/mL | – | – | – |
| undecylideneaminoguanidine decanoate [Decanate] | – | – | – | more pronounced | – |
| undecylideneaminoguanidine hexanoate [hexanoic acid salt of C11AG] | – | – | – | more pronounced | Protection from DSS induced weight loss as compared to the free base (DSS induced colitis; Example 9, mean weight loss per day, FIG. 2): more pronounced |
| undecylideneaminoguanidine octanoate [octanoic acid salt of C11AG] | – | – | – | more pronounced | – |
| undecylideneaminoguanidine pelargonate | 0.95 µg/mL | >10000 µg/mL | no | – | – |
